{
  "source": "patent US8916612B2",
  "about": "“Agmatine containing dietary supplements, nutraceuticals, and foods” (priority 2008, dated 2014)",
  "key": {"[1]": {"system": "participants with lumbar disc-associated radiculopathy", "test": "Randomized, double-blind, placebo-controlled trial in lumbar disc-associated radiculopathy", "assay_type": "in vivo, human", "conditions": "2.670 g/day for 14 days", "source_text": "This recommendation is supported by recent clinical trials (Keynan O, Mirovsky Y, Dekel S, Gilad V H, Gilad G M. Safety and efficacy of dietary agmatine sulfate in lumbar disc-associated radiculopathy. An open label, dose-escalating study followed by a randomized, double-blind, placebo-controlled trial. Pain Med, (2010) in press). […] In the randomized, double-blind, placebo-controlled (RCT) trial, eligible participants received either placebo or agmatine sulfate (2.670 g/day for 14 days) in a double-blind fashion. Analysis was performed on 30 participants in the placebo and 31 in the agmatine sulfate arm. […] Secondary outcomes included assessments of safety and tolerability. […] While the severity of pain symptoms and general health status improved with time in both placebo and agmatine sulfate-treated groups, the improvements were more pronounced in the agmatine sulfate-treated group. […] Importantly, none of the participants reported worsening in their general health status.\nResults, mean (±SEM, vertical lines) values are expressed as percent of baseline values. Asterisks indicate significant differences between the placebo- and agmatine sulfate-treated groups (p 0.033)."}, "male Wistar rats": {"system": "male Wistar rats", "test": "Sub-chronic intake of high dose agmatine sulfate in the drinking water (Example II)", "assay_type": "in vivo, rat", "conditions": "for Blood Pressure (mmHg), systolic, mean / Daily Drinking (ml), mean / Body Weight (g), mean: group mean; for Body Weight / Blood Pressure (mmHg), systolic / Daily Drinking: individual animal, sulfate", "method": "The experiment was performed at Assaf Harofeh Medical Center, Israel, according to the Institutional Animal Care and Use Committee approved protocol. Three-month-old male Wistar rats (Harlan, Israel) weighing 250±20 g were caged individually under standard vivarium conditions of temperature (22±2° C.), humidity (55-75%) and light (12 h light-dark cycle) with a free supply of food and water. Experimental animals (n=10) drank sterile water containing agmatine sulfate 5.3 g/l, while controls (n=10) drank regular sterile drinking-water for 95 days. Drinking-water containing agmatine sulfate have bitter taste.\nAnimal body weight and systolic blood pressure (SBP) as measured by tail-cuff plethysmography (IITC Life Science, Woodland Hills, Calif.) were measured at the starting day of the experiment (day 1) and at various intervals thereafter. General behavior, fur appearance and feces appearance were also assessed. Water consumption was measured daily. After 95 days, 5 animals of each group were deeply anesthetized ([…] sodium pentobarbital, intraperitoneal) and the stomach, kidney, heart and liver removed for gross inspection. The stomach was inspected for appearance of ulcers. The rest of the animals, in both the control and experimental groups, were all maintained on regular diet (without agmatine sulfate in the drinking-water) for additional 20 days and then killed (on the 115th day). Results were evaluated by analysis of variance (ANOVA) procedure. Differences were analyzed by 2-tailed t-test and values of p≦0.05 were considered statistical significant. For data normalization, differences were expressed as percent change of day 1 values."}, "[2]": {"system": "facial nerve crush in male Wistar rats", "test": "Vibrissae functional recovery after facial nerve crush following prior agmatine sulfate intake (Example III)", "assay_type": "in vivo, rat", "method": "The experiment was performed at Assaf Harofeh Medical Center, Israel, with 4-month-old male Wistar rats (Harlan, Israel) kept under standard conditions in the Institute's vivarium according to the Institutional Animal Care and Use Committee approved protocols (see Example II above). […] rats were divided into 2 groups of 14 animals each, one group drank sterile water containing agmatine sulfate 5.3 g/l, while the other drank regular sterile drinking-water for a period of 21 days. On day 21 both groups were switched to drink regular tap water. In 7 rats from each group the facial nerve was crushed unilaterally while the other 7 were left unoperated. Surgery was performed under halothane anesthesia (1.5% in 100% 02) and the facial nerve was crushed unilaterally at the stylomastoid foramen for 20 seconds with a jeweler's forceps under the operating microscope.\nTransection of the facial nerve, which innervates the upper and lower lips results in paralysis of the vibrissae (whiskers) on the operated side. Functional recovery was assessed by evaluation of vibrissae movement for up to 14 days postoperatively using the following arbitrary scale of 0 to 4:0, complete paralysis with vibrissae flattened backwardly; —1, slight vibrating motion; —2, mild proximal vibrating motion; —3 moderate motion of vibrissae and lips; 4, full motion of lower face and vibrissae. Results were evaluated by analysis of variance (ANOVA) procedure followed by Bonferroni post hoc testing and differences considered significant at p<0.05.\nB. sterile water containing agmatine and unoperated (controls, semisolid circle). C. Regular sterile drinking-water and nerve crush (solid square). D. sterile water containing agmatine and nerve crush (solid triangle). Results are the mean (±SEM, vertical lines) values of 7 animals. *=p<0.001 comparing group C to group D values."}, "[3]": {"conditions": "Day 115 (20 days after treatment)"}},
  "note": "“And” between values parts separate entries of the source, which are not always exact repeats. Equal entries are not always repeated.",
  "data": [
    {"smiles": "N=C(N)NCCCCN.O=S(=O)(O)O", "note": "[agmatine sulfate]", "values": [
      {"measurement": "Adverse effects during the trial", "setting": "[1]; 31 participants", "value": "no adverse effects were noted"},
      {"measurement": "Improvement in general health status, SF-36 Total Score, compared to placebo", "setting": "[1]; follow-up 15-20 day, p=0.013", "value": "statistically significant enhanced improvements"},
      {"measurement": "Improvement in pain measures (Visual Analogue Scale) compared to placebo", "setting": "[1]; follow-up 15-20 day, p=0.033", "value": "statistically significant enhanced improvements"},
      {"measurement": "General cage behavior, fur appearance and feces appearance", "setting": "male Wistar rats; 95 days treatment", "value": "all normal"},
      {"measurement": "Blood Pressure (% Change), percent of day 1", "setting": "male Wistar rats; Day 1", "value": "(100) %"},
      {"measurement": "Body Weight (% Change), percent of day 1", "setting": "male Wistar rats; Day 1", "value": "(100) %"},
      {"measurement": "Daily Drinking (% Change), percent of day 1", "setting": "male Wistar rats; Day 1", "value": "(100) %"},
      {"measurement": "Blood Pressure (% Change), percent of day 1", "setting": "male Wistar rats; Day 21", "value": "(97.3) %"},
      {"measurement": "Body Weight (% Change), percent of day 1", "setting": "male Wistar rats; Day 21", "value": "(97.6) %"},
      {"measurement": "Daily Drinking (% Change), percent of day 1", "setting": "male Wistar rats; Day 21", "value": "(72.1) %"},
      {"measurement": "Blood Pressure (% Change), percent of day 1", "setting": "male Wistar rats; Day 95", "value": "(96.9) %"},
      {"measurement": "Body Weight (% Change), percent of day 1", "setting": "male Wistar rats; Day 95", "value": "(102.2) %"},
      {"measurement": "Daily Drinking (% Change), percent of day 1", "setting": "male Wistar rats; Day 95", "value": "(83.9) %"},
      {"measurement": "Blood Pressure (% Change), percent of day 1", "setting": "male Wistar rats; Day 115", "value": "(99.1) %"},
      {"measurement": "Body Weight (% Change), percent of day 1", "setting": "male Wistar rats; Day 115", "value": "(103.9) %"},
      {"measurement": "Daily Drinking (% Change), percent of day 1", "setting": "male Wistar rats; Day 115", "value": "(99.7) %"},
      {"measurement": "Weight gain after switch to regular drinking water", "setting": "male Wistar rats; after 95 days of treatment", "value": "recovery in weight gain within 20 days"},
      {"measurement": "Weight gain", "setting": "male Wistar rats; during treatment", "value": "reduced weight gain with actual weight loss during the first 3 weeks of treatment"},
      {"measurement": "Volume of water intake", "setting": "male Wistar rats; during treatment, 5.3 g/l in drinking water", "value": "reduction in volume of water intake"},
      {"measurement": "Systolic blood pressure", "setting": "male Wistar rats; during treatment, recovered 20 days after cessation", "value": "slight, but significant reduction"},
      {"measurement": "Blood Pressure (mmHg), systolic, mean", "setting": "male Wistar rats; Day 1", "value": 106.4, "unit": "mmHg"},
      {"measurement": "Daily Drinking (ml), mean", "setting": "male Wistar rats; Day 1", "value": 34.8, "unit": "mL"},
      {"measurement": "Body Weight (g), mean", "setting": "male Wistar rats; Day 1, n=10", "value": 253.4, "unit": "g"},
      {"measurement": "Blood Pressure (mmHg), systolic, mean", "setting": "male Wistar rats; Day 21, p<0.05 vs day 1", "value": "103.5 ± mmHg"},
      {"measurement": "Body Weight (g), mean", "setting": "male Wistar rats; Day 21, p<0.05 vs day 1", "value": "247.3 ± g"},
      {"measurement": "Daily Drinking (ml), mean", "setting": "male Wistar rats; Day 21, p<0.05 vs day 1", "value": "25.1 ± ml"},
      {"measurement": "Blood Pressure (mmHg), systolic, mean", "setting": "male Wistar rats; Day 95, p<0.05 vs day 1", "value": "103.1 ± mmHg"},
      {"measurement": "Body Weight (g), mean", "setting": "male Wistar rats; Day 95, p<0.05 vs day 1", "value": "258.9 ± g"},
      {"measurement": "Daily Drinking (ml), mean", "setting": "male Wistar rats; Day 95, p<0.05 vs day 1", "value": "29.2 ± ml"},
      {"measurement": "Body Weight (g), mean", "setting": "male Wistar rats; Day 115 (20 days after treatment), n=5, p<0.05 vs day 1", "value": "261.4 ± g"},
      {"measurement": "Blood Pressure (mmHg), systolic, mean", "setting": "male Wistar rats; Day 115, n=5", "value": 105.8, "unit": "mmHg"},
      {"measurement": "Daily Drinking (ml), mean", "setting": "male Wistar rats; Day 115, n=5", "value": 34.9, "unit": "mL"},
      {"measurement": "Body Weight", "setting": "male Wistar rats; Day 1 (beginning), 5.3 g/l in drinking water", "value": "250 g (2×) and 265 g and 255 g and 257 g and 247 g and 245 g and 252 g and 260 g and 253 g"},
      {"measurement": "Blood Pressure (mmHg), systolic", "setting": "male Wistar rats; Day 1, tail-cuff", "value": "99.0 mmHg and 100.0 mmHg and 105.0 mmHg (2×) and 112.0 mmHg and 115.0 mmHg and 110.0 mmHg and 109.0 mmHg and 102.0 mmHg and 107.0 mmHg"},
      {"measurement": "Daily Drinking", "setting": "male Wistar rats; Day 1", "value": "35.5 ml and 34.8 ml and 35.6 ml (2×) and 34.7 ml and 33.4 ml and 35.0 ml (2×) and 33.8 ml and 34.5 ml"},
      {"measurement": "Blood Pressure (mmHg), systolic", "setting": "male Wistar rats; Day 21", "value": "97.0 mmHg and 95.0 mmHg and 100.0 mmHg (2×) and 109.0 mmHg and 115.0 mmHg and 103.0 mmHg (2×) and 107.0 mmHg and 106.0 mmHg"},
      {"measurement": "Daily Drinking", "setting": "male Wistar rats; Day 21", "value": "21.4 mL and 25.3 mL and 25.1 mL and 25.0 mL and 24.1 mL and 25.5 mL and 26.4 mL and 24.9 mL and 27.0 mL and 26.7 mL"},
      {"measurement": "Body Weight", "setting": "male Wistar rats; Day 21 of treatment", "value": "255 g (2×) and 245 g (3×) and 260 g and 227 g and 242 g and 250 g and 249 g"},
      {"measurement": "Blood Pressure (mmHg), systolic", "setting": "male Wistar rats; Day 95", "value": "95.0 mmHg and 97.0 mmHg and 101.0 mmHg (2×) and 110.0 mmHg and 112.0 mmHg and 105.0 mmHg (2×) and 106.0 mmHg and 99.0 mmHg"},
      {"measurement": "Daily Drinking", "setting": "male Wistar rats; Day 95", "value": "25.6 ml and 28.7 ml and 30.0 ml (2×) and 27.7 ml and 29.6 ml and 30.3 ml and 28.4 ml and 31.3 ml and 30.6 ml"},
      {"measurement": "Body Weight", "setting": "male Wistar rats; Day 95 of treatment", "value": "265 g and 257 g (2×) and 273 g and 253 g and 251 g and 255 g (2×) and 263 g and 260 g"},
      {"measurement": "Blood Pressure (mmHg), systolic", "setting": "male Wistar rats; [3]", "value": "108.0 mmHg and 107.0 mmHg (2×) and 104.0 mmHg and 103.0 mmHg"},
      {"measurement": "Body Weight", "setting": "male Wistar rats; [3]", "value": "256 g and 261 g and 259 g and 267 g and 264 g"},
      {"measurement": "Daily Drinking", "setting": "male Wistar rats; [3]", "value": "34.5 mL and 35.3 mL and 34.9 mL and 35.0 mL and 34.8 mL"},
      {"measurement": "Stomach ulcers", "setting": "male Wistar rats; inspection after 95 days", "value": "no stomach ulcers were observed"},
      {"measurement": "Average daily water consumption", "setting": "male Wistar rats; over the 95 day treatment period", "value": 27.15, "unit": "mL"},
      {"measurement": "Inspection of main internal organs", "setting": "male Wistar rats; stomach, kidney, heart, liver", "value": "did not reveal any gross changes"},
      {"measurement": "Day after injury at which nearly full recovery of vibrissae movement is achieved", "setting": "[2]; controls: day 14", "value": 12, "unit": "days"},
      {"measurement": "Increase in vibrissae motion as compared to controls (group C)", "setting": "[2]; day 10 after injury, 5.3 g/l in drinking water for 21 days before crush", "value": 181.2, "unit": "%"},
      {"measurement": "Recovery of vibrissae movement", "setting": "[2]; group D vs group C, p<0.001", "value": "significantly accelerated recovery of vibrissae movement"}
    ]}
  ]
}
